Experimental data from patent US9346795B2, “Substituted sulfonamides useful as antiapoptotic Bcl inhibitors” (Bristol-Myers Squibb Company, priority 2011, dated 2016).
pIC50: −log10 of the molar value.

Columns and labels:
Bcl-2 = Bcl-2 (Homo sapiens (Human), UniProt P10415); assay: Bcl-2/Bim Fluorescence Polarization Assay (FPA); type: binding
Bcl-xL = Bcl-xL (Homo sapiens (Human), UniProt Q07817); assay: Bcl-xL/Bim Fluorescence Resonance Energy Transfer Assay (FRET); type: binding
In short: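 Biotin-Bcl-xL was incubated with Bim and compound at eleven concentrations for 60 min at room temperature. Streptavidin-terbium detection was then added for 30 min in the dark, and FRET was read. IC50 values were obtained by non-linear regression.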

Sequence of Bcl-xL (Q07817 whole entry): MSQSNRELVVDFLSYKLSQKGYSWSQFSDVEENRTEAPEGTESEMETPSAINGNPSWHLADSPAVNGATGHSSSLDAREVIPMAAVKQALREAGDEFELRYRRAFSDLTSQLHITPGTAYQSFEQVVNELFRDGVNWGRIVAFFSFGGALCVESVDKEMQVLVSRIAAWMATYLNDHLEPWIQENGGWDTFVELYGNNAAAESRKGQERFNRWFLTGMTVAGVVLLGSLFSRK
Sequence of Bcl-2 (P10415 whole entry): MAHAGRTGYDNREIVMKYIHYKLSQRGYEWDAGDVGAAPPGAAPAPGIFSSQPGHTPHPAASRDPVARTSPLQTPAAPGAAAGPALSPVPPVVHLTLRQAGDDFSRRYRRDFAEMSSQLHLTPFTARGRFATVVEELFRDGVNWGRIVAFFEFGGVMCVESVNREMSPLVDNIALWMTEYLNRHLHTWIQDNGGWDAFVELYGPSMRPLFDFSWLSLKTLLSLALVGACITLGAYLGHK

Row | Compound | pIC50 (Bcl-2) | pIC50 (Bcl-xL)
1 | CCCCN(CCCC)C(=O)c1nn(-c2ccc(C(=O)NS(=O)(=O)c3ccc4ccc(Cl)cc4c3)cc2C(=O)N2CCc3ccccc3C2)c(C)c1Cl [Example 10, N,N-dibutyl-4-chloro-1-(4-(7-chloronaphthalen-2-ylsulfonylcarbamoyl)-2-(1,2,3,4-tetrahydroisoquinoline-2-carbonyl)phenyl)-5-methyl-1H-pyrazole-3-carboxamide] | 7.05 | 7.05
2 | CCCCc1c(-c2ccc(C(=O)NS(=O)(=O)c3ccc4c(Cl)ccc(Br)c4c3)cc2C(=O)N2CCc3ccccc3C2)c(C(=O)OCC)nn1-c1ccc(Oc2cccc(Cl)c2)cc1 [Example 251, ethyl 4-(4-(8-bromo-5-chloronaphthalen-2-ylsulfonylcarbamoyl)-2-(1,2,3,4-tetrahydroisoquinoline-2-carbonyl)phenyl)-5-butyl-1-(4-(3-chlorophenoxy)phenyl)-1H-pyrazole-3-carboxylate] | 7.70 | 7.30
3 | CCCCN(CCCC)C(=O)c1nn(-c2ccc(C(=O)NS(=O)(=O)c3ccc4c(c3)CCN4CCSc3ccccc3)cc2C(=O)N2CCc3ccccc3C2)c(C)c1Cl [Example 67, N,N-dibutyl-4-chloro-5-methyl-1-(4-(1-(2-(phenylthio)ethyl)indolin-5-ylsulfonylcarbamoyl)-2-(1,2,3,4-tetrahydroisoquinoline-2-carbonyl)phenyl)-1H-pyrazole-3-carboxamide] | 7.30 | 7.22
4 | CCCCN(CCCC)C(=O)c1nn(-c2ccc(C(=O)NS(=O)(=O)c3ccc4ccccc4c3)cc2C(=O)N2Cc3ccccc3C[C@H]2CN2CCN(CCO)CC2)c(C)c1Cl [Example 115, N,N-dibutyl-4-chloro-1-(2-((S)-3-((4-(2-hydroxyethyl)piperazin-1-yl)methyl)-1,2,3,4-tetrahydroisoquinoline-2-carbonyl)-4-(naphthalen-2-ylsulfonylcarbamoyl)phenyl)-5-methyl-1H-pyrazole-3-carboxamide] | 7.05 | 7.70
5 | CCCCN(CCCC)C(=O)c1nn(-c2ccc(C(=O)NS(=O)(=O)c3ccc4ccccc4c3)cc2C(=O)N2CCc3ccc(C(=O)O)cc3C2)c(C)c1Cl [Example 100, 2-(2-(4-Chloro-3-(dibutylcarbamoyl)-5-methyl-1H-pyrazol-1-yl)-5-(naphthalen-2-ylsulfonylcarbamoyl)benzoyl)-1,2,3,4-tetrahydroisoquinoline-7-carboxylic acid] | 5.33 | 5.45
6 | CCCCN(CCCC)C(=O)c1cn(CC(=O)O)c(-c2ccc(C(=O)NS(=O)(=O)c3cccc4ccccc34)cc2C(=O)N2CCc3ccccc3C2)n1 [Example 269, 2-(4-(Dibutylcarbamoyl)-2-(4-(naphthalen-1-ylsulfonylcarbamoyl)-2-(1,2,3,4-tetrahydroisoquinoline-2-carbonyl)phenyl)-1H-imidazol-1-yl)acetic acid] | 6.85 | 7.52
7 | CCCCN(CCc1ccc(Cl)c(Cl)c1)C(=O)c1nn(-c2ccc(C(=O)NS(=O)(=O)c3ccc4ccccc4c3)cc2C(=O)N2CCc3ccccc3C2)c(C)c1Cl [Example 127, N-butyl-4-chloro-N-(3,4-dichlorophenethyl)-5-methyl-1-(4-(naphthalen-2-ylsulfonylcarbamoyl)-2-(1,2,3,4-tetrahydroisoquinoline-2-carbonyl)phenyl)-1H-pyrazole-3-carboxamide] | 7.52 | 6.66
8 | CCCCN(CCCC)C(=O)c1nn(-c2ccc(C(=O)NS(=O)(=O)c3ccc4c(c3)CCN4CC)cc2C(=O)N2CCc3ccccc3C2)c(C)c1Cl [Example 53, N,N-dibutyl-4-chloro-1-(4-(1-ethylindolin-5-ylsulfonylcarbamoyl)-2-(1,2,3,4-tetrahydroisoquinoline-2-carbonyl)phenyl)-5-methyl-1H-pyrazole-3-carboxamide] | 7.22 | 8.00
9 | CCCCc1c(-c2ccc(C(=O)NS(=O)(=O)CC[Si](C)(C)C)cc2C(=O)N2CCc3ccccc3C2)c(C(=O)OCC)nn1-c1ccccc1 [Example 239, Ethyl 5-butyl-1-phenyl-4-(2-(1,2,3,4-tetrahydroisoquinoline-2-carbonyl)-4-(2-(trimethylsilyl)ethylsulfonylcarbamoyl)phenyl)-1H-pyrazole-3-carboxylate] | 6.24 | 7.52
10 | CCCCN(C(=O)c1nn(-c2ccc(C(=O)NS(=O)(=O)c3ccc4c(Cl)ccc(Br)c4c3)cc2C(=O)N2CCc3ccccc3C2)c(C)c1Cl)c1cccc(-c2ccc(Cl)cc2)c1 [Example 217, 1-(4-(8-bromo-5-chloronaphthalen-2-ylsulfonylcarbamoyl)-2-(1,2,3,4-tetrahydroisoquinoline-2-carbonyl)phenyl)-N-butyl-4-chloro-N-(4′-chlorobiphenyl-3-yl)-5-methyl-1H-pyrazole-3-carboxamide] | 8.00 | 7.15
11 | CCCCN(CCCC)C(=O)c1nn(-c2ccc(C(=O)NS(=O)(=O)c3ccc4c(N(C)C)ccc(Br)c4c3)cc2C(=O)N2CCc3ccccc3C2)c(C)c1Cl [Example 31, 1-(4-(8-bromo-5-(dimethylamino)naphthalen-2-ylsulfonylcarbamoyl)-2-(1,2,3,4-tetrahydroisoquinoline-2-carbonyl)phenyl)-N,N-dibutyl-4-chloro-5-methyl-1H-pyrazole-3-carboxamide] | 7.52 | 7.15
12 | CCCCN(CCCC)C(=O)c1nn(-c2ccc(C(=O)NS(=O)(=O)c3ccc4c(ccn4Cc4ccc(Cl)c(Cl)c4)c3)cc2C(=O)N2Cc3ccccc3C[C@H]2CO)c(C)c1Cl [Example 198, N,N-dibutyl-4-chloro-1-(4-(1-(3,4-dichlorobenzyl)-1H-indol-5-ylsulfonylcarbamoyl)-2-((S)-3-(hydroxymethyl)-1,2,3,4-tetrahydroisoquinoline-2-carbonyl)phenyl)-5-methyl-1H-pyrazole-3-carboxamide] | 8.05 | 7.30
13 | CCCCc1c(-c2ccc(C(=O)NS(=O)(=O)c3ccc4ccccc4c3)cc2C(=O)N2CCc3ccccc3C2)c(CO)nn1-c1ccc(CCO)cc1 [Example 245, 4-(5-butyl-1-(4-(2-hydroxyethyl)phenyl)-3-(hydroxymethyl)-1H-pyrazol-4-yl)-N-(naphthalen-2-ylsulfonyl)-3-(1,2,3,4-tetrahydroisoquinoline-2-carbonyl)benzamide] | 7.70 | 8.21
14 | CCCCN(CCCC)c1ccc(Br)c(-c2ccc(C(=O)NS(=O)(=O)c3ccc4cccc(Cl)c4c3)cc2C(=O)N2CCc3ccccc3C2)n1 [Example 289, 4-(3-Bromo-6-(dibutylamino)pyridin-2-yl)-N-(8-chloronaphthalen-2-ylsulfonyl)-3-(1,2,3,4-tetrahydroisoquinoline-2-carbonyl)benzamide] | 8.00 | 7.22
15 | CCCN(CCC)c1ncc(Cl)c(-c2ccc(C(=O)NS(=O)(=O)c3ccc4cccc(Cl)c4c3)cc2C(=O)N2Cc3ccccc3C[C@H]2CO)n1 [Example 328, 4-(5-Chloro-2-(dipropylamino)pyrimidin-4-yl)-N-(8-chloronaphthalen-2-ylsulfonyl)-3-((S)-3-(hydroxymethyl)-1,2,3,4-tetrahydroisoquinoline-2-carbonyl)benzamide] | 8.06 | 8.00
16 | CCCCN(CCCC)C(=O)c1nn(-c2ccc(C(=O)NS(=O)(=O)c3ccc4cccc(OCCCN5CCOCC5)c4c3)cc2C(=O)N2CCc3ccccc3C2)c(C)c1Cl [Example 32, N,N-dibutyl-4-chloro-5-methyl-1-(4-(8-(3-morpholinopropoxy)naphthalen-2-ylsulfonylcarbamoyl)-2-(1,2,3,4-tetrahydroisoquinoline-2-carbonyl)phenyl)-1H-pyrazole-3-carboxamide] | 6.54 | 7.30
17 | CCCCN(CCCC)C(=O)c1nn(-c2ccc(C(=O)NS(=O)(=O)c3ccc4c(ccn4Cc4ccc(Cl)c(Cl)c4)c3)cc2C(=O)N2CCc3ccccc3C2)c(C)c1Cl [Example 68, N,N-dibutyl-4-chloro-1-(4-(1-(3,4-dichlorobenzyl)-1H-indol-5-ylsulfonylcarbamoyl)-2-(1,2,3,4-tetrahydroisoquinoline-2-carbonyl)phenyl)-5-methyl-1H-pyrazole-3-carboxamide] | 7.30 | 6.96
18 | CCCCc1c(-c2ccc(C(=O)NS(=O)(=O)c3ccc4ccccc4c3)cc2C(=O)N2CCc3ccccc3C2)c(C(=O)OCC)nn1-c1ccc(Oc2cccc(Cl)c2)cc1 [Example 230, Ethyl 5-butyl-1-(4-(3-chlorophenoxy)phenyl)-4-(4-(naphthalen-2-ylsulfonylcarbamoyl)-2(1,2,3,4-tetrahydroisoquinoline-2-carbonyl)phenyl)-1H-pyrazole-3-carboxylate] | 7.70 | 7.22
19 | CCCCN(CCCC)C(=O)c1nn(-c2ccc(C(=O)NS(=O)(=O)c3ccc4c(c3)CCN4C(=O)C3CCCCC3)cc2C(=O)N2CCc3ccccc3C2)c(C)c1Cl [Example 55, N,N-dibutyl-4-chloro-1-(4-(1-(cyclohexanecarbonyl)indolin-5-ylsulfonylcarbamoyl)-2-(1,2,3,4-tetrahydroisoquinoline-2-carbonyl)phenyl)-5-methyl-1H-pyrazole-3-carboxamide] | 6.60 | 6.64
20 | CCCCc1c(-c2ccc(C(=O)NS(=O)(=O)c3ccc4ccccc4c3)cc2C(=O)N2CCc3ccccc3C2)c(CO)nn1-c1ccc(Oc2cccc(Cl)c2)cc1 [Example 243, 4-(5-butyl-1-(4-(3-chlorophenoxy)phenyl)-3-(hydroxymethyl)-1H-pyrazol-4-yl)-N-(naphthalen-2-ylsulfonyl)-3-(1,2,3,4-tetrahydroisoquinoline-2-carbonyl)benzamide] | 8.11 | 7.70
21 | CCCCN(CCCC)C(=O)c1nn(-c2ccc(C(=O)NS(=O)(=O)c3cc(Br)c4c(ccn4CC)c3)cc2C(=O)N2Cc3ccccc3C[C@H]2CO)c(C)c1Cl [Example 208, 1-(4-(7-bromo-1-ethyl-1H-indol-5-ylsulfonylcarbamoyl)-2-((S)-3-(hydroxymethyl)-1,2,3,4-tetrahydroisoquinoline-2-carbonyl)phenyl)-N,N-dibutyl-4-chloro-5-methyl-1H-pyrazole-3-carboxamide] | 8.44 | 8.10
